The text below walks through data of ChEMBL document CHEMBL1201862, “PubChem BioAssay data set” (2004).

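Each compound was tested at five concentrations against cells in 96-well plates for 48 hours. Here, GI50 denotes the concentration required for 50% inhibition of growth.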 Active and inactive are the calls of the source. Cut-off read from the data, not from the text of the source: active = GI50 up to about 1.1 µM and inactive = higher.

Some test systems named below: SF-268; IGROV-1; MOLT-4; SK-MEL-5; SF-539; U-251; NCI-H522; A498; SW-620; CCRF-CEM; ACHN; LOX IMVI; SK-OV-3; SK-MEL-28; HCT-15; OVCAR-3; HOP-92; NCI-H460; HCT-116.
Holding throughout (assay): NCI-60 cell line screen, 48 h

Consider `S=C(Nc1ccccc1)Nc1[nH]c(=S)sc1-c1nc2ccccc2[nH]1`, for which the GI50 in the assay with SF-268 was 48.9 µM (inactive); in the assay on IGROV-1, 94.2 µM (inactive); in the assay on MOLT-4, > 100 µM (inactive); in the assay with SK-MEL-5 it was 28.8 µM (inactive); in the assay with SF-539 it was 28.6 µM (inactive); in the assay with U-251, 80 µM (inactive). Besides, the GI50 is 62.4 µM (inactive) with NCI-H522; > 100 µM (inactive) in the assay with A498; > 100 µM (inactive) in the assay with SW-620; > 100 µM (inactive) with CCRF-CEM; 72.4 µM (inactive) with ACHN; 61.4 µM (inactive) in the assay with LOX IMVI. In addition, the GI50 is 37.9 µM (inactive) in the assay on SK-OV-3, 73.5 µM (inactive) in the assay with SK-MEL-28, 98.2 µM in the assay with HCT-15 and 30.6 µM (inactive) in the assay with OVCAR-3.

On to `C=C1C2CC(OC(C)=O)C3(C)C(c4ccoc4)OC(=O)[C@@H](O)[C@]13OC1C[C@H](OC(C)=O)C(C)(C)[C@H](C(O)C(=O)OC)[C@]12C` (stereo not given in full), for which the GI50 with IGROV-1, in the assay with MOLT-4, in the assay on SK-MEL-5, in the assay on SF-539, in the assay on U-251 and in the assay on A498 was > 100 µM (inactive) throughout. Moreover, the GI50 is > 100 µM (inactive) with SW-620; 4.17 µM (inactive) with HOP-92; > 100 µM (inactive) in the assay with CCRF-CEM; > 100 µM (inactive) in the assay on NCI-H460; > 100 µM (inactive) in the assay on ACHN; > 100 µM (inactive) in the assay with LOX IMVI. Further, the GI50 in the assay with SK-OV-3 is > 100 µM (inactive); with SK-MEL-28, > 100 µM (inactive); in the assay with HCT-15, above 100 µM; in the assay on HCT-116, > 100 µM (inactive); in the assay with OVCAR-3 it was > 100 µM (inactive).

As to `O=C(Cc1nc2c3c(ccc2nc1O)C(=O)c1ccccc1C3=O)C(=O)Nc1ccccc1[N+](=O)[O-]`, the GI50 with SF-268 is 14.4 µM (inactive); in the assay with IGROV-1, 29.6 µM (inactive); with MOLT-4, 4.22 µM (inactive); in the assay on SK-MEL-5, 18.3 µM (inactive); in the assay on SF-539, 17.6 µM (inactive); in the assay with U-251 it was 17.7 µM (inactive). For the same molecule, the GI50 is 5.27 µM (inactive) with NCI-H522; 12.3 µM (inactive) with SW-620; 20.7 µM (inactive) with HOP-92; 2.51 µM (inactive) with CCRF-CEM; 31.9 µM (inactive) in the assay with NCI-H460; 15.7 µM (inactive) in the assay with ACHN. The GI50 with LOX IMVI was 16.5 µM (inactive); in the assay with SK-OV-3 it was 60 µM (inactive); in the assay with SK-MEL-28, 16.1 µM (inactive); with HCT-15, above 10 µM; in the assay with HCT-116, 26.6 µM (inactive); in the assay with OVCAR-3 it was 11.5 µM (inactive).

Regarding `COC(=O)C1=COC(OC2OC(CO)C(O)C(O)C2O)C2C3CN4CCc5c([nH]c6ccccc56)C4(CC12)O3` (stereo not given), the GI50 in the assay with SF-268 is 31.9 µM (inactive); in the assay with IGROV-1, 46.5 µM (inactive); in the assay on MOLT-4, > 100 µM (inactive); with SK-MEL-5, > 100 µM (inactive); with SF-539 it was > 100 µM (inactive); in the assay with U-251, > 100 µM (inactive). Moreover, the GI50 in the assay with A498, in the assay on SW-620, in the assay with NCI-H460, in the assay with ACHN, in the assay on LOX IMVI and in the assay on SK-OV-3 was > 100 µM (inactive) throughout. The GI50 with SK-MEL-28 is > 100 µM (inactive); in the assay on HCT-15 it was above 100 µM; with HCT-116, > 100 µM (inactive); with OVCAR-3, > 100 µM (inactive).

For the molecule `Clc1cccc2c1OCC1C(c3ccccc3)=NN(c3ccccc3)C21` (stereo not given), the GI50 is 63.2 µM (inactive) in the assay with SF-268; > 100 µM (inactive) in the assay with IGROV-1; 35.2 µM (inactive) in the assay with MOLT-4; 23.8 µM (inactive) in the assay with SK-MEL-5; 38.9 µM (inactive) in the assay with U-251; 45.4 µM (inactive) with NCI-H522. For the same molecule, the GI50 in the assay with A498 was > 100 µM (inactive); in the assay with SW-620, > 100 µM (inactive); with HOP-92, 64.4 µM (inactive); in the assay with CCRF-CEM it was 32.2 µM (inactive); in the assay with NCI-H460, 59.4 µM (inactive); in the assay on ACHN, 55.5 µM (inactive). Besides, the GI50 is 39.7 µM (inactive) in the assay with LOX IMVI; > 100 µM (inactive) in the assay with SK-OV-3; > 100 µM (inactive) in the assay with SK-MEL-28; 12.9 µM (inactive) with HCT-116; > 100 µM (inactive) in the assay on OVCAR-3.

Consider `C/C(=C1/N=C(c2cc([N+](=O)[O-])ccc2Cl)N(c2ccc(Br)cc2)C1=O)c1ccc(N(CCC#N)CCC#N)cc1C`, for which the GI50 in the assay on SF-268 is 61.7 µM (inactive); in the assay on IGROV-1, 28.4 µM (inactive); with MOLT-4 it was 9.62 µM (inactive); in the assay with SK-MEL-5, 13.7 µM (inactive); in the assay with SF-539, 52.2 µM (inactive); in the assay with A498 it was 25.7 µM (inactive). For the same molecule, the GI50 with SW-620 was 12.7 µM (inactive); in the assay on HOP-92 it was 36.4 µM (inactive); in the assay on CCRF-CEM, 12.3 µM (inactive); in the assay on NCI-H460 it was 25.1 µM (inactive); in the assay on ACHN, 31.5 µM (inactive); with LOX IMVI it was 7.5 µM (inactive). Further, the GI50 in the assay on SK-OV-3 was > 100 µM (inactive); in the assay with SK-MEL-28, 49.5 µM (inactive); with HCT-15, 16.4 µM; with HCT-116 it was 15.6 µM (inactive); in the assay with OVCAR-3, 24.5 µM (inactive).

Take `COc1ccc(-c2cc(O)c3ccc(F)cc3n2)cc1`: the GI50 in the assay on SF-268 was 23.5 µM (inactive); with IGROV-1, > 100 µM (inactive); with MOLT-4, > 100 µM (inactive); with SK-MEL-5 it was > 100 µM (inactive); in the assay on SF-539, > 100 µM (inactive); with NCI-H522, > 100 µM (inactive). Moreover, the GI50 in the assay with SW-620, in the assay with HOP-92, with CCRF-CEM, with NCI-H460, with ACHN and with LOX IMVI was > 100 µM (inactive) each time. The GI50 with SK-OV-3, in the assay on SK-MEL-28, with HCT-116 and in the assay with OVCAR-3 was > 100 µM (inactive) each time.

Regarding `Cc1cc(NCCCCCCCCNc2cc(C)nc3cc(N(C)C)ccc23)c2ccc(N(C)C)cc2n1`, the GI50 with SF-268 was 3.48 µM (inactive); with MOLT-4, 2 µM (inactive); in the assay with SF-539, 3.23 µM (inactive); in the assay with U-251, 1.56 µM (inactive); with NCI-H522 it was 2.75 µM (inactive); in the assay with A498, 17.5 µM (inactive). Further, the GI50 is 6.81 µM (inactive) in the assay with SW-620; 2.58 µM (inactive) in the assay on HOP-92; 5.01 µM (inactive) in the assay on CCRF-CEM; 3.01 µM (inactive) with NCI-H460; 12.3 µM (inactive) with ACHN; 2.37 µM (inactive) with LOX IMVI. The GI50 was 0.933 µM (active) in the assay on SK-MEL-28, 34.8 µM with HCT-15, 3.4 µM (inactive) in the assay with HCT-116 and 3.86 µM (inactive) in the assay with OVCAR-3.

For `C/C(CC(=O)Nc1cc(C)ccc1C)=N\NC(=O)c1ccncc1`, the GI50 in the assay with SF-268, in the assay on IGROV-1, in the assay with MOLT-4, in the assay with SK-MEL-5, in the assay on SF-539 and in the assay on U-251 was > 100 µM (inactive) in each case. In addition, the GI50 in the assay with NCI-H522 was 78 µM (inactive); in the assay with SW-620 it was > 100 µM (inactive); in the assay on HOP-92, 79.6 µM (inactive); in the assay on CCRF-CEM, > 100 µM (inactive); with NCI-H460, > 100 µM (inactive); with LOX IMVI, > 100 µM (inactive). Further, the GI50 with SK-OV-3, in the assay with SK-MEL-28, in the assay on HCT-116 and in the assay with OVCAR-3 was > 100 µM (inactive) each time.

For `COc1cc(C(O)C(=O)c2cnc3cc([N+](=O)[O-])ccc3n2)ccc1O` (stereo not given), the GI50 in the assay on IGROV-1, with MOLT-4, in the assay on SK-MEL-5, with SF-539, with U-251 and in the assay on A498 was > 100 µM (inactive) throughout. Also, the GI50 with SW-620 is > 100 µM (inactive); in the assay with CCRF-CEM, > 100 µM (inactive); in the assay with NCI-H460 it was > 100 µM (inactive); in the assay on ACHN, > 100 µM (inactive); in the assay with LOX IMVI it was 77.8 µM (inactive); in the assay on SK-OV-3, > 100 µM (inactive). Moreover, the GI50 in the assay on HCT-15 is above 100 µM; with HCT-116 it was > 100 µM (inactive).

With `Cc1ccc(NC(=O)C(=O)CC(=O)C2CCOC2=O)c(C)c1` (stereo not given), the GI50 in the assay with SF-268, in the assay with IGROV-1, in the assay with SK-MEL-5, in the assay on SF-539, in the assay with U-251 and in the assay with NCI-H522 was > 100 µM (inactive) in each case. The GI50 in the assay on A498, in the assay with SW-620, with HOP-92, in the assay on CCRF-CEM, with NCI-H460 and in the assay with ACHN was > 100 µM (inactive) each time. In addition, the GI50 with LOX IMVI is > 100 µM (inactive); with SK-OV-3, > 100 µM (inactive); in the assay with SK-MEL-28, > 100 µM (inactive); with HCT-15, above 100 µM; in the assay on HCT-116 it was > 100 µM (inactive); in the assay with OVCAR-3 it was > 100 µM (inactive).

Consider `O=C(c1ccncc1)n1nc(-c2ccccc2)c(/N=N/c2ccccc2[N+](=O)[O-])c1-c1ccccc1`, for which the GI50 in the assay with SF-268 is 82 µM (inactive); in the assay with IGROV-1, 73.8 µM (inactive); in the assay on MOLT-4, 38.9 µM (inactive); with SK-MEL-5, 21.6 µM (inactive); with SF-539, 50.8 µM (inactive); in the assay on NCI-H522, 56 µM (inactive). For the same molecule, the GI50 with A498 is 70.3 µM (inactive); with SW-620 it was 67.3 µM (inactive); with HOP-92, 35.6 µM (inactive); in the assay on CCRF-CEM, 59.3 µM (inactive); in the assay on SK-OV-3, > 100 µM (inactive); with SK-MEL-28, > 100 µM (inactive). In addition, the GI50 is 44.3 µM (inactive) in the assay with HCT-116 and 45 µM (inactive) with OVCAR-3.
